From paper PMC9095706, “TMEM16 scramblases thin the membrane to enable lipid scrambling” (Nature Communications, 2022) come the findings set out here.

For assay [1], the target named is T1, afTMEM16 (Aspergillus fumigatus, UniProt Q4WA18).
T1 construct: gene AFUA_4G02970; expressed in S. cerevisiae from pDDGFP2, His tag removed with TEV protease, digitonin-purified homodimer, in MSP1E3 nanodiscs or proteoliposomes
T1 sequence (Q4WA18 1-735): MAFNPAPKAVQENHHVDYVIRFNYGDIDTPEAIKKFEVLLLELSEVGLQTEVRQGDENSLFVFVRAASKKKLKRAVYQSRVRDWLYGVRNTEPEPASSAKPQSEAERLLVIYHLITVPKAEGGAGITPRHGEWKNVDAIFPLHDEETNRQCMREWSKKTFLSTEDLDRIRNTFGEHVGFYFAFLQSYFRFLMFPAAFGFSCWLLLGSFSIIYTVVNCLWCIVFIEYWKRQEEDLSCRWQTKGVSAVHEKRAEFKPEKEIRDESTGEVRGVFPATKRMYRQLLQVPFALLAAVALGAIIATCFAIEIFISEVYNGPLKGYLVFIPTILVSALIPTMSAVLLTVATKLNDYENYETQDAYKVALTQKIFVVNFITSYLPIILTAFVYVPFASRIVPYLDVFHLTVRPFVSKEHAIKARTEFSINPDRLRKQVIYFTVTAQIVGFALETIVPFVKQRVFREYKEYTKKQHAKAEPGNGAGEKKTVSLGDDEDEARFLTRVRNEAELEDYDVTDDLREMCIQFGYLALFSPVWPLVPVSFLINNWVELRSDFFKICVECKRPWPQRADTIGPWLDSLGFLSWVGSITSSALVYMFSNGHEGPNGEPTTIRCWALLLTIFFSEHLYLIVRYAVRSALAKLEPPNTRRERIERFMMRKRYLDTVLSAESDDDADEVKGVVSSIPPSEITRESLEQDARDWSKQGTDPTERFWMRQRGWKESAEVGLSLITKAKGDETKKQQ
Put plainly: cryo-EM structure ([…] Å) in MSP1E3 nanodiscs. Conditions: 0.5 mM Ca2+; 7:3 DOPC:DOPG nanodisc; lipids D4 and D5 built as PG, near dimer interface and lipid pathway; models started from POPG (PGW) and truncated to density. The assay is classed as binding.

Assay [2] has as its target afTMEM16 scramblase from Aspergillus fumigatus (Aspergillus fumigatus). Put plainly: cryo-EM structure; afTMEM16 reconstituted in lipid nanodiscs (MSP1E3 or MSP2N2; C14, C18 or C22 lipids, 7 PC:3 PG), 50 mM HEPES pH 8.0, 150 mM KCl with 0.5 mM CaCl2 or 5 mM EDTA; homodimer, C2 symmetric reconstructions.

As to `CCCCCCCC/C=C\CCCCCCCC(=O)OC[C@H](COP(=O)(O)OCC(O)CO)OC(=O)CCCCCCC/C=C\CCCCCCCC` (mixture of isomers) [1,2-dioleoyl-sn-glycero-3-phospho-(1′-rac-glycerol)], in assay [1], the “cryo-EM structure (2.3 Å) in MSP1E3 nanodiscs” value was “The downward slope of the OL starts at D5, a well-defined PG lipid”.

For the molecule “afTMEM16 scramblase from Aspergillus fumigatus (natural protein)”, the stoichiometry N in assay [2] worked out at 2.

A word on the stoichiometry N: it is the number of molecules, sites or subunits per partner or assembly.
